Molecular target: T1, Methylated-DNA--protein-cysteine methyltransferase (Homo sapiens, UniProt P16455)
T1 sequence (P16455 whole entry): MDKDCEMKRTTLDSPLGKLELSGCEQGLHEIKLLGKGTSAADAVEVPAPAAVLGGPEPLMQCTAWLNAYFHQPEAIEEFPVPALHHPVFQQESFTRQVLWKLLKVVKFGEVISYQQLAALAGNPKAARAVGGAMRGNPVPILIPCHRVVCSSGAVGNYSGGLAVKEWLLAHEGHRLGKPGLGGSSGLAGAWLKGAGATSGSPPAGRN
Test: In vitro inhibition of MGMT using cell free extracts from HeLa S3 cells

IC50 | SMILES
38 nM | Nc1nc(OCc2ccccc2)c2[nH]nnc2n1
9 nM | Nc1nc(OCc2cc(Br)cs2)c2[nH]cnc2n1 [LOMEGUATRIB]

— ChEMBL document CHEMBL1134281, “Monosaccharide-linked inhibitors of O(6)-methylguanine-DNA methyltransferase (MGMT): synthesis, molecular modeling, and structure-activity relationships” (J Med Chem, 2001)
